Six molecules from US20260373248A1, “DEGRADABLE PEPTOIDS” (Medici Therapeutics, Inc., priority 2023, published 2026) can be followed below.

Data set [1] is described as follows: Peptoid quantity remaining in liver by HPLC-TOF mass spectrometry. Format: in vivo. As to conditions: liver homogenate. In outline:
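Whole liver weighed; 20 mg tissue bead-homogenized in IPA/MeOH (8/2) with internal standard, centrifuged, supernatant run on BEH C8 HPLC-TOF MS. Peptoid concentration derived from linear calibration curve (0.2-50 μg/g) prepared in spiked untreated liver.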

The next data set concerns luciferase. Briefly: Luciferase expression after local (intramuscular or subcutaneous) administration of mRNA. Format: in vivo. Particulars: mRNA 0.01 mpk, 6 hours; for IM Flux: intramuscular; for SC Flux: subcutaneous. In outline:
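Female Balb/c mice (6-8 weeks) received fLuc mRNA in aminolipidated peptoid Nutshells at 0.01 mpk subcutaneously or intramuscularly, or 0.1 mpk intratumorally. At 6 hours, anesthetized mice were given D-luciferin IP and imaged 10 minutes later; harvested organs were also imaged and total photon flux quantified in regions of interest.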

The nature of data set [2]: Delivery vehicle size and polydispersity by dynamic light scattering. Format: physicochemical. In outline: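 LNPs made by microfluidic mixing of ethanolic peptoid/DSPC/cholesterol/DMG-PEG2000 (20:1.79:7.16:1.84 by weight) with mRNA in 10 mM citrate pH 5.0 at 1:3 by volume, then dialyzed overnight at 4 °C against tris-sucrose pH 7.4. Size and PDI read by dynamic light scattering in PBS.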

The next data set deals with hEPO. Briefly: Quantification of hEPO in serum after IV injection of mRNA (Human EPO ELISA). Format: in vivo. As to conditions: Balb/c mice, 2.5 μg mRNA IV, serum after 6 hours. An outline of the steps: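 Balb/c mice received 2.5 μg mRNA encoding human EPO by IV injection; serum was collected after 6 hours. hEPO was measured by sandwich ELISA (biotin-conjugate, streptavidin-HRP, TMB, A450) against kit standards (mIU/mL) and an external standard (ng/mL), with values interpolated and corrected for dilution.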
For orientation: In an ELISA, binding on a coated surface is turned into a signal by an enzyme label.

The next data set has as its system mRNA. Briefly: mRNA encapsulation (modified Quant-iT RiboGreen assay). Format: physicochemical. Particulars: for mean percent encapsulation of RNA: RiboGreen, without vs with Triton X-100; for % Encapsulation: mRNA. An outline of the steps:
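Peptoid nanoparticles were incubated with Triton X-100 for 10 min to release entrapped mRNA, then mixed with RiboGreen reagent and read by fluorescence (ex 485 nm/em 530 nm). Percent encapsulation was derived from the ratio of fluorescence without versus with Triton X-100.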

The subject of another data set is firefly luciferase. In words: In vivo firefly luciferase expression after intravenous injection of fLuc mRNA delivery vehicles (IVIS imaging). Details: species or system female Balb/c mice. Particulars: for Total Flux (luciferase expression): fLuc mRNA, intravenous, Balb/c mice; for Total Flux: mice, 2.5 ug fLuc mRNA intravenously, 6 hours post-injection. An outline of the steps:
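Female Balb/c mice (6-8 weeks) given 2.5 ug fLuc mRNA in Nutshells IV. At 6 hours, IP D-luciferin (30 mg/mL, 10 μL/g) under isoflurane; IVIS imaging 10 minutes later, then harvested organs imaged ex vivo. Read-out: total photon flux in regions of interest.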

Where [3] appears, read: DLS in PBS, peptoid:DSPC:Cholesterol:DMG-PEG2000 weight ratio 20:1.79:7.16:1.84, mRNA.

Non-standard residues stand in square brackets, D forms with d. Residues, ends and D or L forms follow the SMILES beside them. Gly(N-(3-decanoyloxypropyl)) = CCCCCCCCCC(=O)OCCCNCC(=O)O; N(3-lauroyloxypropyl)Gly = CCCCCCCCCCCC(=O)OCCCNCC(=O)O; N(2-decanoyloxyethyl)Gly = CCCCCCCCCC(=O)OCCNCC(=O)O; N(3-imidazol-1-ylpropyl)Gly = O=C(O)CNCCCn1ccnc1; N(2-ethylhexyl)Gly = CCCCC(CC)CNCC(=O)O; N(CH(CH2OH)2)Gly = O=C(O)CNC(CO)CO; N(octyl)Gly = CCCCCCCCNCC(=O)O; NHexGly = CCCCCCNCC(=O)O

Turning to `CCCCCCCCCC(=O)OCCN(CC(N)=O)C(=O)CN(CCOC(=O)CCCCCCCCC)C(=O)CN(CC(CC)CCCC)C(=O)CN(CCOC(=O)CCCCCCCCC)C(=O)CN(CCOC(=O)CCCCCCCCC)C(=O)CN(CC(CC)CCCC)C(=O)CNC(CO)CO` (stereo not drawn) [Compound 105] (H-[N(CH(CH2OH)2)Gly][N(2-ethylhexyl)Gly][N(2-decanoyloxyethyl)Gly][N(2-decanoyloxyethyl)Gly][N(2-ethylhexyl)Gly][N(2-decanoyloxyethyl)Gly][N(2-decanoyloxyethyl)Gly]-NH2), the “% of injected dose remaining in liver” value in data set [1] is on record as 7.51%. Besides, in the data set with luciferase, the “IM Flux” value stood at 2.85E+08 p/s. Moreover, the “SC Flux” value in the data set with luciferase amounted to 9.57E+08 p/s. Besides, the PDI in data set [2] (setting [3]) came out at 0.150. Moreover, the “Particle Size” value in data set [2] (setting [3]) was determined as 75.9 nm; in data set [2] (formulation recipe D22), 75.9 nm; in data set [2] (formulation recipe R1), 55.6 nm; in data set [2] (formulation recipe R4), 59.6 nm; in data set [2] (formulation recipe R5), 63.5 nm; in data set [2] (formulation recipe R9), 64.9 nm. The “Particle Size” value in data set [2] (formulation recipe R10) is given as 68.6 nm. Also, the hEPO with hEPO worked out at 580 ng/mL. Also, the “mean percent encapsulation of RNA” value in the data set on mRNA amounted to 73.2%. Besides, the “% Encapsulation” value is reported as 73.2% in the data set on mRNA (formulation recipe D22); 92.7% in the data set with mRNA (formulation recipe R1); 73.1% with mRNA (formulation recipe R4); 94.6% in the data set on mRNA (formulation recipe R5); 94.0% with mRNA (formulation recipe R9); 93.2% in the data set on mRNA (formulation recipe R10). Also, the “Total Flux (luciferase expression)” value in the data set with firefly luciferase (formulation recipe D22) is 1.05E+10 p/s; in the data set with firefly luciferase (formulation recipe R1), 4.15E+08 p/s; in the data set with firefly luciferase (formulation recipe R4), 2.47E+09 p/s; in the data set with firefly luciferase (formulation recipe R5) it was 1.28E+09 p/s; in the data set with firefly luciferase (formulation recipe R9), 1.56E+09 p/s; in the data set with firefly luciferase (formulation recipe R10), 2.70E+09 p/s. Moreover, in the data set on firefly luciferase, the “Total Flux” value came out at 1.05E+10 p/s.
Regarding `CCCCCCCCCC(=O)OCCCN(CC(=O)N(CCCOC(=O)CCCCCCCCC)CC(=O)N(CCCCCC)CC(=O)N(CCCOC(=O)CCCCCCCCC)CC(=O)N(CCCOC(=O)CCCCCCCCC)CC(=O)N(CCCCCC)CC(N)=O)C(=O)CNCCCn1ccnc1` [Compound 109] (H-[N(3-imidazol-1-ylpropyl)Gly][Gly(N-(3-decanoyloxypropyl))][Gly(N-(3-decanoyloxypropyl))][NHexGly][Gly(N-(3-decanoyloxypropyl))][Gly(N-(3-decanoyloxypropyl))][NHexGly]-NH2), in data set [1], the “% of injected dose remaining in liver” value is 48.80%. In addition, in the data set with luciferase, the “IM Flux” value turned out to be 3.97E+07 p/s and the “SC Flux” value is 1.00E+08 p/s. Moreover, in data set [2] (setting [3]), the PDI stood at 0.173 and the “Particle Size” value worked out at 87.5 nm. The hEPO with hEPO is 108 ng/mL. In addition, in the data set on mRNA, the “mean percent encapsulation of RNA” value was 69.5%. In the data set with firefly luciferase, the “Total Flux” value turned out to be 1.85E+09 p/s.
As to `CCCCCCCCCC(=O)OCCCN(CC(=O)N(CC(N)=O)CC(CC)CCCC)C(=O)CN(CCCCCCCC)C(=O)CN(CC(CC)CCCC)C(=O)CN(CCCOC(=O)CCCCCCCCC)C(=O)CN(CCCCCCCC)C(=O)CNC(CO)CO` (stereo not drawn) [Compound 32] (H-[N(CH(CH2OH)2)Gly][N(octyl)Gly][Gly(N-(3-decanoyloxypropyl))][N(2-ethylhexyl)Gly][N(octyl)Gly][Gly(N-(3-decanoyloxypropyl))][N(2-ethylhexyl)Gly]-NH2), the “% of injected dose remaining in liver” value in data set [1] came to 8.18%. The “IM Flux” value in the data set on luciferase was found to be 1.45E+08 p/s. Moreover, the “SC Flux” value with luciferase turned out to be 9.18E+08 p/s. The PDI in data set [2] (setting [3]) was 0.156. Besides, the “Particle Size” value is reported as 89.3 nm in data set [2] (setting [3]); 89.3 nm in data set [2] (formulation recipe D22); 71.0 nm in data set [2] (formulation recipe R2); 65.5 nm in data set [2] (formulation recipe R5); 68.4 nm in data set [2] (formulation recipe R6); 65.1 nm in data set [2] (formulation recipe R7). Also, the “Particle Size” value in data set [2] (formulation recipe R9) is listed as 64.9 nm. This molecule gave a hEPO in the data set on hEPO of 642 ng/mL. The “mean percent encapsulation of RNA” value in the data set with mRNA is given as 59.3%. Moreover, the “% Encapsulation” value in the data set on mRNA (formulation recipe D22) was found to be 59.3%; with mRNA (formulation recipe R2), 88.2%; in the data set on mRNA (formulation recipe R5) it was 86.0%; with mRNA (formulation recipe R6), 93.7%; with mRNA (formulation recipe R7) it was 79.1%; in the data set on mRNA (formulation recipe R9), 92.7%. For the same molecule, the “Total Flux (luciferase expression)” value was 7.45E+09 p/s in the data set with firefly luciferase (formulation recipe D22); 7.39E+08 p/s in the data set with firefly luciferase (formulation recipe R2); 5.34E+08 p/s in the data set on firefly luciferase (formulation recipe R5); 9.19E+08 p/s with firefly luciferase (formulation recipe R6); 1.41E+09 p/s in the data set with firefly luciferase (formulation recipe R7); 8.16E+08 p/s in the data set on firefly luciferase (formulation recipe R9). In addition, the “Total Flux” value in the data set with firefly luciferase was 7.45E+09 p/s.
Regarding `CCCCCCCCCC(=O)OCCCN(CC(N)=O)C(=O)CN(CC(CC)CCCC)C(=O)CN(CCCOC(=O)CCCCCCCCC)C(=O)CN(CCCOC(=O)CCCCCCCCC)C(=O)CN(CCCOC(=O)CCCCCCCCC)C(=O)CN(CC(CC)CCCC)C(=O)CNC(CO)CO` (stereo not drawn) [Compound 103] (H-[N(CH(CH2OH)2)Gly][N(2-ethylhexyl)Gly][Gly(N-(3-decanoyloxypropyl))][Gly(N-(3-decanoyloxypropyl))][Gly(N-(3-decanoyloxypropyl))][N(2-ethylhexyl)Gly][Gly(N-(3-decanoyloxypropyl))]-NH2), the “% of injected dose remaining in liver” value in data set [1] is “bdl”. Further, in the data set with luciferase, the “IM Flux” value stood at 1.93E+08 p/s and the “SC Flux” value is listed as 7.28E+08 p/s. In data set [2] (setting [3]), the PDI turned out to be 0.111 and the “Particle Size” value came out at 81.5 nm. In addition, in the data set on hEPO, the hEPO stood at 961 ng/mL. Further, in the data set on mRNA, the “mean percent encapsulation of RNA” value was determined as 76.8%. In addition, the “Total Flux” value with firefly luciferase came out at 8.56E+09 p/s.
`CCCCCCCCCCCC(=O)OCCCN(CC(=O)N(CC(=O)N(CCCCCC)CC(=O)N(CCCOC(=O)CCCCCCCCCCC)CC(=O)N(CC(=O)N(CCCCCC)CC(N)=O)CC(CC)CCCC)CC(CC)CCCC)C(=O)CNCCCn1ccnc1` (stereo not drawn) [Compound 72] (H-[N(3-imidazol-1-ylpropyl)Gly][N(3-lauroyloxypropyl)Gly][N(2-ethylhexyl)Gly][NHexGly][N(3-lauroyloxypropyl)Gly][N(2-ethylhexyl)Gly][NHexGly]-NH2): the “% of injected dose remaining in liver” value in data set [1] was 11.32%. In the data set with luciferase, the “IM Flux” value is 9.25E+06 p/s and the “SC Flux” value came out at 3.73E+07 p/s. In addition, in data set [2] (setting [3]), the PDI is given as 0.139 and the “Particle Size” value amounted to 106.8 nm. Also, in the data set with hEPO, the hEPO turned out to be 36 ng/mL. In the data set with mRNA, the “mean percent encapsulation of RNA” value came to 89.2%. For the same molecule, in the data set with firefly luciferase, the “Total Flux” value is given as 1.71E+08 p/s.
Turning to `CCCCCCCCCC(=O)OCCCN(CC(=O)N(CC(=O)N(CCCCCC)CC(=O)N(CCCOC(=O)CCCCCCCCC)CC(=O)N(CC(=O)N(CCCCCC)CC(N)=O)CC(CC)CCCC)CC(CC)CCCC)C(=O)CNC(CO)CO` (stereo not drawn) [Compound 55] (H-[N(CH(CH2OH)2)Gly][Gly(N-(3-decanoyloxypropyl))][N(2-ethylhexyl)Gly][NHexGly][Gly(N-(3-decanoyloxypropyl))][N(2-ethylhexyl)Gly][NHexGly]-NH2), the “% of injected dose remaining in liver” value in data set [1] is given as 4.59%. Moreover, in the data set with luciferase, the “IM Flux” value came to 5.29E+07 p/s and the “SC Flux” value is 9.41E+07 p/s. For the same molecule, in data set [2] (setting [3]), the PDI came to 0.139 and the “Particle Size” value stood at 90.2 nm. In the data set on hEPO, this molecule had a hEPO of 63.1 ng/mL. For the same molecule, the “mean percent encapsulation of RNA” value in the data set with mRNA was determined as 26.3%. In addition, the “Total Flux” value in the data set with firefly luciferase is 6.22E+08 p/s.
